One series concerns C. albicans (ATCC 24433). In words: Antifungal microdilution MIC. Conditions: Candida albicans, ATCC24433. The format is cell-based. On the procedure:
(§1) The antifungal and antibacterial activities of the synthesized compounds (5a–i) were evaluated in vitro against E. coli (ATCC 25922), S. marcescens (ATCC 8100), K. pneumoniae (ATCC 13883), P. aeruginosa (ATCC 27853), E. faecalis (ATCC 2942), B. subtilis, S. aureus (ATCC 29213), S. epidermidis (ATCC 12228), C. albicans (ATCC 24433), C. krusei (ATCC 6258), and C. parapsilosis (ATCC 22019). The final synthesized compounds were evaluated as antibacterial and antifungal references, in comparison to azithromycin, voriconazole, and fluconazole. Tables 1 and 2 provide a summary of the antimicrobial activity test results and the minimum inhibitory concentrations (MICs) of the compounds (5a–i).
(§2) The antimicrobial activity of the final compounds (5a–i) was screened against eight species of pathogenic bacteria and […] (E. coli (ATCC 25922), S. marcescens (ATCC 8100), K. pneumonia (ATCC 13883), P. aeruginosa (ATCC 27853), E. faecalis (ATCC 2942), B. subtilis (NRRL NRS 744), S. aureus (ATCC 29213), S. epidermidis (ATCC 12228), C. albicans (ATCC 24433), C. glabrata (ATCC 90030), C. krusei (ATCC 6258), and C. parapsilosis (ATCC 22 019)) according to the microdilution standard methods CLSI M07-A9 (2012) and NCCLS M27-A2 (2002), as described in the previous study.[25],[26]
(Dilution methods test growth across graded concentrations, often in twofold steps.)

The test system of the next series is C. krusei (ATCC 6258). Nature of the series: Antifungal microdilution MIC. The format is cell-based. The following applies: Pichia kudriavzevii, ATCC6258. On the procedure:
as §1, §2

Series [1] deals with C. parapsilosis (ATCC 22019). Nature of the series: Antifungal microdilution MIC. The format is cell-based. The following applies: Lodderomyces parapsilosis, ATCC22019. On the procedure: as §1, §2
Another series has as its system B. subtilis. In words: Antibacterial microdilution MIC. The format is cell-based. The following applies: Bacillus subtilis. On the procedure:
as §1, §2

The test system of a further series is E. coli (ATCC 25922). Nature of the series: Antibacterial microdilution MIC. The following applies: Escherichia coli, ATCC25922. The format is cell-based. On the procedure: as §1, §2
Another series deals with E. faecalis (ATCC 2942). Nature of the series: Antibacterial microdilution MIC. Conditions: Enterococcus faecalis, ATCC2942. The format is cell-based. On the procedure:
as §1, §2

Series [2] has as its system K. pneumoniae (ATCC 13883). Nature of the series: Antibacterial microdilution MIC. The format is cell-based. The following applies: Klebsiella pneumoniae, ATCC13883. On the procedure:
as §1, §2

In series [3] the test system is P. aeruginosa (ATCC 27853). In words: Antibacterial microdilution MIC. The format is cell-based. The following applies: Pseudomonas aeruginosa, ATCC27853. On the procedure: as §1, §2
The subject of a further series is S. aureus (ATCC 29213). Nature of the series: Antibacterial microdilution MIC. The format is cell-based. The following applies: Staphylococcus aureus, ATCC29213. On the procedure: as §1, §2
Series [4] has as its system S. epidermidis (ATCC 12228). Nature of the series: Antibacterial microdilution MIC. Conditions: Staphylococcus epidermidis, ATCC12228. The format is cell-based. On the procedure: as §1, §2
Series [5] concerns S. marcescens (ATCC 8100). In words: Antibacterial microdilution MIC. The format is cell-based. The following applies: Serratia marcescens, ATCC8100. On the procedure: as §1, §2
For series [6], the system named is L929 fibroblast cell line. Nature of the series: Cytotoxicity MTT assay on healthy cells. The format is cell-based. Conditions: L929 healthy mouse fibroblast cells. On the procedure:
The effect of the compounds between 5a–i on the viability of the L929 cell line was analyzed by MTT assay. The MTT method was performed as previously described.[27]
A general note: Formazan colour is commonly taken as a measure of viable cells.

Setting [7] is: C. albicans (ATCC 24433), read-out: MIC.
Setting [8] is: C. krusei (ATCC 6258), read-out: MIC.
[9] abbreviates: C. parapsilosis (ATCC 22019), read-out: MIC.
Where [10] appears, read: F: B. subtilis, Gram-positive, read-out: MIC.
Setting [11] is: A: E. coli (ATCC 25922), Gram-negative, read-out: MIC.
The mark [12] stands for this setting: E: E. faecalis (ATCC 2942), Gram-positive, read-out: MIC.
Setting [13] is: C: K. pneumoniae (ATCC 13883), Gram-negative, read-out: MIC.
Setting [14] is: D: P. aeruginosa (ATCC 27853), Gram-negative, read-out: MIC.
[15] abbreviates: G: S. aureus (ATCC 29213), Gram-positive, read-out: MIC.
[16] abbreviates: H: S. epidermidis (ATCC 12228), Gram-positive, read-out: MIC.
Setting [17] is: B: S. marcescens (ATCC 8100), Gram-negative, read-out: MIC.

Each structure is given as a SMILES string. Values after ≈ are worked out from the molar mass of the structure shown. Like-named read-outs stand apart in the source and are kept apart here.

For `CNc1nnc(-c2ccc(-c3nc4ccccc4[nH]3)cc2)s1` [Compound 5a, N-Methyl-5-(4-(1H-Benzo[d]imidazole-2-Yl)phenyl)-1,3,4-Thiadiazole-2-Amine], the melting point is 325.6 °C. Further, in the series with C. albicans (ATCC 24433) (setting [7]), the MIC stood at 31.2 µg/mL (≈ 102 µM). In addition, the MIC with C. krusei (ATCC 6258) (setting [8]) turned out to be 125 µg/mL (≈ 407 µM). The MIC in series [1] (setting [9]) turned out to be 125 µg/mL (≈ 407 µM). The MIC with B. subtilis (setting [10]) was 125 µg/mL (≈ 407 µM). Besides, the MIC with E. coli (ATCC 25922) (setting [11]) was found to be 250 µg/mL (≈ 813 µM). Further, the MIC in the series with E. faecalis (ATCC 2942) (setting [12]) was 3.9 µg/mL (≈ 12.7 µM). Moreover, the MIC in [2] (setting [13]) is 125 µg/mL (≈ 407 µM). For the same compound, the MIC in series [3] (setting [14]) stood at 62.5 µg/mL (≈ 203 µM). Further, the MIC with S. aureus (ATCC 29213) (setting [15]) was found to be 7.81 µg/mL (≈ 25.4 µM). Further, the MIC in series [4] (setting [16]) came to 7.81 µg/mL (≈ 25.4 µM). For the same compound, in [5] (setting [17]), the MIC was 62.5 µg/mL (≈ 203 µM). The compound also returned an IC50 in series [6] of 152 ± 3.64 µM.
As for `CCNc1nnc(-c2ccc(-c3nc4ccccc4[nH]3)cc2)s1` [Compound 5b, N-Ethyl-5-(4-(1H-Benzo[d]imidazole-2-Yl)phenyl)-1,3,4-Thiadiazole-2-Amine], the melting point was found to be 321.6 °C. In the series with C. albicans (ATCC 24433) (setting [7]), the MIC worked out at 7.81 µg/mL (≈ 24.3 µM). Besides, the MIC in the series with C. krusei (ATCC 6258) (setting [8]) stood at 31.2 µg/mL (≈ 97.2 µM). In addition, in [1] (setting [9]), the MIC was found to be 15.6 µg/mL (≈ 48.6 µM). In addition, the MIC in the series with B. subtilis (setting [10]) amounted to 125 µg/mL (≈ 389 µM). Besides, the MIC with E. coli (ATCC 25922) (setting [11]) turned out to be 62.5 µg/mL (≈ 194 µM). For the same compound, the MIC with E. faecalis (ATCC 2942) (setting [12]) is 3.9 µg/mL (≈ 12.1 µM). The MIC in [2] (setting [13]) is 62.5 µg/mL (≈ 194 µM). Moreover, the MIC in series [3] (setting [14]) came out at 62.5 µg/mL (≈ 194 µM). Further, the MIC in the series on S. aureus (ATCC 29213) (setting [15]) came out at 31.2 µg/mL (≈ 97.2 µM). In series [4] (setting [16]), the MIC turned out to be 31.2 µg/mL (≈ 97.2 µM). Further, in [5] (setting [17]), the MIC is 62.5 µg/mL (≈ 194 µM). Moreover, the IC50 in series [6] amounted to 119 ± 9.64 µM.
On to `ClCCNc1nnc(-c2ccc(-c3nc4ccccc4[nH]3)cc2)s1` [Compound 5c, N-(2-Chloroethyl)-5-(4-(1H-Benzo[d]imidazole-2-Yl)phenyl)-1,3,4-Thiadiazole-2-Amine], for which the melting point worked out at 191.2 °C. In the series with C. albicans (ATCC 24433), this compound displayed an MIC of 31.2 µg/mL (≈ 87.8 µM). In the series with C. krusei (ATCC 6258), the MIC worked out at 125 µg/mL (≈ 351 µM). The compound also yielded an MIC in series [1] of 125 µg/mL (≈ 351 µM). Moreover, the MIC against B. subtilis was found to be 62.5 µg/mL (≈ 176 µM). Inhibition of growth in the series on E. coli (ATCC 25922) (MIC) required 62.5 µg/mL (≈ 176 µM). In addition, the MIC against E. faecalis (ATCC 2942) is 15.6 µg/mL (≈ 43.9 µM). This compound also registered an MIC in series [2] of 62.5 µg/mL (≈ 176 µM). The same compound showed an MIC in series [3] of 125 µg/mL (≈ 351 µM). In the series with S. aureus (ATCC 29213), this compound registered an MIC of 31.2 µg/mL (≈ 87.8 µM). Also, in [4], the MIC worked out at 31.2 µg/mL (≈ 87.8 µM). In addition, the MIC in [5] stood at 62.5 µg/mL (≈ 176 µM).
With `Clc1ccccc1Nc1nnc(-c2ccc(-c3nc4ccccc4[nH]3)cc2)s1` [Compound 5d, N-(2-Chlorophenyl)-5-(4-(1H-Benzo[d]imidazole-2-Yl)phenyl)-1,3,4-Thiadiazole-2-Amine], the melting point amounted to 294.8 °C. The MIC with C. albicans (ATCC 24433) (setting [7]) was 7.81 µg/mL (≈ 19.3 µM). Also, in the series with C. krusei (ATCC 6258) (setting [8]), the MIC was determined as 125 µg/mL (≈ 309 µM). Further, the MIC in [1] (setting [9]) came to 125 µg/mL (≈ 309 µM). Also, the MIC with B. subtilis (setting [10]) is 125 µg/mL (≈ 309 µM). In the series on E. coli (ATCC 25922) (setting [11]), the MIC was found to be 125 µg/mL (≈ 309 µM). For the same compound, the MIC in the series on E. faecalis (ATCC 2942) (setting [12]) is 7.81 µg/mL (≈ 19.3 µM). Moreover, the MIC in series [2] (setting [13]) worked out at 125 µg/mL (≈ 309 µM). For the same compound, the MIC in series [3] (setting [14]) turned out to be 125 µg/mL (≈ 309 µM). Further, the MIC in the series with S. aureus (ATCC 29213) (setting [15]) turned out to be 7.81 µg/mL (≈ 19.3 µM). Further, the MIC in [4] (setting [16]) was 31.2 µg/mL (≈ 77.4 µM). For the same compound, in series [5] (setting [17]), the MIC amounted to 62.5 µg/mL (≈ 155 µM). In addition, the IC50 in series [6] is 197 ± 14.7 µM.
With `c1ccc2[nH]c(-c3ccc(-c4nnc(NC5CCCCC5)s4)cc3)nc2c1` [Compound 5e, N-Cyclohexyl-5-(4-(1H-Benzo[d]imidazole-2-Yl)phenyl)-1,3,4-Thiadiazole-2-Amine], the melting point was found to be 276.5 °C. Also, in the series with C. albicans (ATCC 24433) (setting [7]), the MIC came to 7.81 µg/mL (≈ 20.8 µM). Further, in the series with C. krusei (ATCC 6258) (setting [8]), the minimal inhibitory concentration (MIC) is 125 µg/mL (≈ 333 µM). The minimal inhibitory concentration (MIC) in [1] (setting [9]) was determined as 125 µg/mL (≈ 333 µM). Besides, the MIC with B. subtilis (setting [10]) is 250 µg/mL (≈ 666 µM). Also, the MIC with E. coli (ATCC 25922) (setting [11]) was 125 µg/mL (≈ 333 µM). The MIC in the series on E. faecalis (ATCC 2942) (setting [12]) turned out to be 15.6 µg/mL (≈ 41.6 µM). Also, the MIC in series [2] (setting [13]) stood at 125 µg/mL (≈ 333 µM). In addition, the MIC in series [3] (setting [14]) is 125 µg/mL (≈ 333 µM). Further, the MIC in the series on S. aureus (ATCC 29213) (setting [15]) is 125 µg/mL (≈ 333 µM). In series [4] (setting [16]), the MIC was 7.81 µg/mL (≈ 20.8 µM). Moreover, the MIC in [5] (setting [17]) is 125 µg/mL (≈ 333 µM). Also, the IC50 in series [6] stood at 102 ± 12 µM.

For orientation: MIC means the least concentration at which growth counts as inhibited. The IC50 is the midpoint of a concentration-inhibition curve. Higher therefore signals lower potency. By melting point is commonly meant the temperature, or range, at which the solid turns liquid.
